Experimental data from patent US20220251081A1, “HETEROBICYCLIC INHIBITORS OF MAT2A AND METHODS OF USE FOR TREATING CANCER” (priority 2019, published 2022).

Assays:
HCT116 MTAP +/+ = experiment: Inhibition of cellular proliferation, 4 days, Cell Titer Glo, HCT116 MTAP+/+; assay type: cell-based; details: Homo sapiens, HCT-116, 96 h, IC50 score, read-out: 4 Day Relative Growth Inhibition (MTAP +/+)
Procedure: (§1) Assay for Inhibition of Cellular Proliferation
(§2) Test compound impact on cancer cell growth was assessed by treating cancer cells with compound for 4 days and then measuring proliferation using an ATP-based cell proliferation readout (Cell Titer Glo, Promega Corporation).
(§3) In a typical assay an isogenic pair of HCT116 human colon carcinoma cell lines which vary only in MTAP deletion status (HCT116 MTAP +/+ and HCT116 MTAP−/−) were plated in 96-well dishes at appropriate cell density. Following 24 hours, cells were then treated with the candidate MAT2A inhibitor. Prior to addition to cells, the compound was first serially diluted in 100% DMSO, typically as a 3-fold serial dilution starting at 500× top dose with 10 dose points including DMSO only control. Compound was then transferred to a working stock plate in cell culture media by adding 5 μL of compound in DMSO to 495 μL of cell culture media. This working stock was then added to cells via a further 5-fold dilution, by adding 25 μL of working stock to 100 μL of cells in culture media. Following compound addition, cells were incubated at 37° C./5% C02 for 4 days.
(§4) To measure inhibition of cellular proliferation, cells were allowed to equilibrate to room temperature for 30 minutes, and were then treated with 125 μL of Cell Titer Glo reagent. The plate was then covered with aluminum foil and shaken for 15 minutes to ensure complete mixing and full cell lysis. Luminescent signal was then measured using a plate-based luminometer Veritas version 1.9.2 using ATP standard curve to confirm assay reproducibility from run to run. This luminescence measure was converted to a proliferation index by subtracting from each data point the ATP luminescence signal measured from a bank (no cells) well and dividing by the ATP luminescence signal measured in 0.2% DMSO control well adjusted for signal in blank well. Compound activity was then represented as a percentage change in proliferation relative to a within-plate DMSO control against log 10 of compound concentration in molar (M) units.

[1] = test system: SAM in HCT116 human colon carcinoma cell line with deleted MTAP gene; experiment: Cellular assay of target engagement (SAM): SAM level by LC-MS/MS after 72 hrs; assay type: cell-based; details: HCT-116, IC50 score, read-out: Cell 72 h SAM Inhibition (MTAP −/−)
Procedure: Cellular Assay of Target Engagement (SAM)
Measurement of MAT2A activity in cells was made by direct quantitation of the abundance of the product of its enzymatic activity, SAM. Cancer cells were treated with candidate MAT2A inhibitors for a suitable incubation period, and the cells were then lysed using a reagent which quenched any further enzyme activity. Soluble metabolites including SAM were collected and SAM itself was directly measured from the lysate using quantitative LC-MS/MS.
A typical assay was performed using an HCT116 human colon carcinoma cell line which was genetically engineered to delete the MTAP gene (commercially available from Horizon Discovery). This cell line was utilized because it was determined that loss of the MTAP gene predicts sensitivity to MAT2A inhibitors. Cells were plated in 96-well dishes at appropriate cell density. Following 24 hours, cells were then treated with the candidate MAT2A inhibitor. Prior to addition to cells, the compound was first serially diluted in 100% DMSO, typically as a 3-fold serial dilution starting at 500× top dose with 10 dose points including DMSO only control. Compound was then transferred to a working stock plate in cell culture media by adding 5 μL of compound in DMSO to 495 μL of cell culture media. This working stock was then added to cells via a further 5-fold dilution, by adding 25 μL of working stock to 100 μL of cells in culture media. Following compound addition, cells were incubated at 37° C./5% CO2 for 72 hrs.
To quantitate SAM levels following compound treatment, cells were gently washed once in ammonium carbonate buffer (75 mM at pH 7.4), placed on dry ice, and lysed with metabolite extraction buffer (80% cold methanol and 20% water (v/v) with acetic acid at 1M final concentration with 200 ng/mL deuterated d3-SAM as internal control). Following centrifugation at 4° C. at 3,200 rpm for 30 minutes, the supernatant was collected and stored at −80° C. until analysis by Liquid Chromatography with tandem Mass Spectrometry (LC-MS/MS). LC-MS/MS analysis was performed using an API6500 Mass Spectrometer (Sciex, Framingham, Mass., USA) operating in positive ion spray mode and equipped with a Waters UPLC Acquity (Waters, Milford, Mass., USA) BEH Amide column. Multiple Reaction Monitoring data was acquired for SAM and the d3-SAM standard, using a mass transition pair at m/z 399.2→250.1 and 402.2→250.1, respectively. In a typical LC-MS/MS analysis, the initial flow rate was 0.5 ml/min of 25% mobile phase A (acetonitrile and water at 5:95 (v/v) with 1% formic acid and 10 mM ammonium acetate) and 75% mobile phase B (acetonitrile and water at 95:5 (v/v) with 1% formic acid and 10 mM ammonium acetate), 0.2-0.5 minutes with 75%-35% mobile phase B, 25%-65% mobile phase A, at 0.5 min 65% mobile phase A and 35% mobile phase B, 1.0-1.1 minutes with 35%-75% mobile phase B, 65%-25% mobile phase A, at 1.1 min 25% mobile phase A and 75% mobile phase B with a total run time of 1.5 minutes.

MAT2A homodimer = molecular target: T1, MAT2A homodimer (Homo sapiens, UniProt P31153); experiment: Biochemical assay: inhibition of recombinant MAT2A homodimer (phosphate release, PiColorLock Gold); details: MAT2A IC50 score; read-out: Enzyme Inhibition
T1 construct: inferred from Ni sepharose purification and imidazole elution; made in house; host or cells: Sf9 insect cells, recombinant baculovirus (Bac to Bac, pFASTBAC1 vector)
Procedure: Mat2A protein was expressed by recombinant baculovirus in SF9 infected cells using the Bac to Bac system cloned into the pFASTBAC1 vector (Invitrogen, Carlsbad, Calif.). Recombinant MAT2A was isolated from the cell lysate of 150 g of infected cells using HP Ni sepharose column chromatography. Recombinant MAT2A homodimer was eluted with 250 and 500 mM imidazole, and fractions containing MAT2A were identified by sodium dodecyl sulfate polyacrylamide gel electrophoresis and pooled.
For determination of the inhibitory potency of compounds against the MAT2A homodimer, protein was diluted to 4 μg/mL in assay buffer (50 mM Tris, pH 8.0, 50 mM KCl, 15 mM MgCl2, 0.3 mM EDTA, 0.005% [w/v] bovine serum albumin [BSA]). Test compound was prepared in 100% dimethyl sulfoxide (DMSO) at 50× the desired final concentration. A 1 μL volume of compound dilution was added to 40 μL of enzyme dilution and the mixture was allowed to equilibrate for 60 minutes at 25° C. The enzymatic assay was initiated by the addition of 10 μL of substrate mix (500 μM ATP, pH 7.0, 40 μM L-methionine in 1× assay buffer), and the mixture was incubated for a further 60 minutes at 25° C. The reaction was halted and the liberated phosphate released by the enzyme in stoichiometric amounts by the production of S-adenosyl methionine (SAM) was measured using the PiColorLock Gold kit (Innova Biosciences, UK). Absolute product amounts were determined by comparison to a standard curve of potassium phosphate buffer, pH 8.0.

HCT116 MTAP-/- = experiment: Inhibition of cellular proliferation, 4 days, Cell Titer Glo, HCT116 MTAP-/-; assay type: cell-based; details: Homo sapiens, HCT-116, 96 h, IC50 score, read-out: 4 Day Relative Growth Inhibition (MTAP −/−)
Procedure: as §1, §2, §3, §4

T1 sequence (P31153 whole entry): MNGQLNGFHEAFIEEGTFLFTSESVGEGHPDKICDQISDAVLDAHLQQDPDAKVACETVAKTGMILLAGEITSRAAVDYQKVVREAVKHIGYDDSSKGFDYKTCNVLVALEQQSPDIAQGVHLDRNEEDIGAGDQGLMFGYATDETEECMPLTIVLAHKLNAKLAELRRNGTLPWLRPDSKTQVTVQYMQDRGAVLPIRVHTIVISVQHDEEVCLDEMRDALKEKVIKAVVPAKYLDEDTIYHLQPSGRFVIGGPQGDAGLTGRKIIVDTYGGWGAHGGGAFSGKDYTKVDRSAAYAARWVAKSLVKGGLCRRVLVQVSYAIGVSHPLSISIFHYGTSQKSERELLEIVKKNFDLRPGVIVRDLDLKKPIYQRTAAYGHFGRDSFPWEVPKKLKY

| IC50 (HCT116 MTAP +/+) [nM] | IC50 [1] [nM] | IC50 (MAT2A homodimer) [nM] | IC50 (HCT116 MTAP-/-) [nM] | SMILES |
| --- | --- | --- | --- | --- |
| ≥ 1000 | < 100 | < 100 | 100 to 1000 | COc1ccc(-c2cc3cnc(NCC(F)(F)F)nc3n(-c3ccc(-c4nc[nH]n4)cc3)c2=O)cc1 [Example 101, 8-(4-(1H-1,2,4-triazol-3-yl)phenyl)-6-(4-methoxyphenyl)-2-(2,2,2-trifluoroethylamino)pyrido[2,3-d]pyrimidin-7(8H)-one] |
| ≥ 1000 | 100 to 1000 | 100 to 1000 | 100 to 1000 | COc1ccc(-c2cc3cnc(NCC(F)(F)F)nc3n(-c3ccc(O)cc3)c2=O)cc1 [Example 106] |
| ≥ 1000 | < 100 | < 100 | 100 to 1000 | COc1ccc(-c2cc3cnc(NCC(F)(F)F)nc3n(-c3ccc(OC)cc3)c2=O)cc1 [Example 115] |
| ≥ 1000 | < 100 | < 100 | < 100 | COc1ccc(-n2c(=O)c(-c3ccc4ncccc4c3)cc3cnc(NCC(F)(F)F)nc32)cc1 [Example 116] |
| – | – | 100 to 1000 | – | COc1ccc(-n2c(=O)c(-c3ccc(OC)c(C)c3)cc3cnc(NCC(F)(F)F)nc32)cc1 [Example 178] |
| – | – | 100 to 1000 | – | COc1ccc(-n2c(=O)c(-c3ccc(S(C)(=O)=O)cc3)cc3cnc(NCC(F)(F)F)nc32)cc1 [Example 179] |
| – | – | 100 to 1000 | – | COc1ccc(-n2c(=O)c(-c3ccncc3)cc3cnc(NCC(F)(F)F)nc32)cc1 [Example 181] |
| – | – | 1000 to 10000 | – | COc1ccc(-n2c(=O)c(-c3ccc4nncn4c3)cc3cnc(NCC(F)(F)F)nc32)cc1 [Example 182] |
| – | – | 100 to 1000 | – | COc1ccc(-n2c(=O)c(-c3ccc(OC)c(F)c3)cc3cnc(NCC(F)(F)F)nc32)cc1 [Example 184] |
| – | – | < 100 | – | COc1ccc(-n2c(=O)c(-c3ccc4c(c3)C(C)(C)CO4)cc3cnc(NCC(F)(F)F)nc32)cc1 [Example 190] |
| – | – | 100 to 1000 | – | COc1ccc(-n2c(=O)c(-c3ccc4c(c3)OC(C)(C)O4)cc3cnc(NCC(F)(F)F)nc32)cc1 [Example 191] |
| – | – | < 100 | – | O=c1c(-c2ccc3nccn3c2)cc2cnc(NCC(F)(F)F)nc2n1-c1ccc(C2CC2)cc1 [Example 192] |
| – | – | < 100 | – | Cn1cc(-c2cc3cnc(NCC(F)(F)F)nc3n(-c3ccc(C4CC4)cc3)c2=O)ccc1=O [Example 193] |
| – | – | < 100 | – | CCOc1ccc2cc(-c3ccc(OC(F)F)cc3)c(=O)n(-c3ccc(OC(F)F)cc3)c2n1 [Example 198] |
| – | – | < 100 | – | CCOc1ccc2cc(-c3ccc(OCCN(C)C)cc3)c(=O)n(-c3ccc(OC(F)F)cc3)c2n1 [Example 206] |
| – | – | < 100 | – | CCOc1ccc2cc(-c3ccc4nn(CC(C)(C)C)cc4c3)c(=O)n(-c3ccc(Cl)cc3)c2n1 [Example 211] |
| – | – | < 100 | – | CCOc1ccc2cc(-c3ccc4nn(CC(C)(C)O)cc4c3)c(=O)n(-c3ccc(OC(F)(F)F)nc3)c2n1 [Example 212] |
| – | < 100 | < 100 | < 100 | CCOc1ccc2cc(-c3ccc4nncn4c3)c(=O)n(-c3ccc(C4CC4)nc3)c2n1 [Example 215] |
| – | – | < 100 | – | Cn1cc(-c2cc3cnc(NCC(F)(F)F)nc3n(-c3ccc(-c4cc[nH]n4)cc3)c2=O)ccc1=O [Example 234, 8-(4-(1H-pyrazol-5-yl)phenyl)-6-(1-methyl-6-oxo-1,6-dihydropyridin-3-yl)-2-(2,2,2-trifluoroethylamino)pyrido[2,3-d]pyrimidin-7(8H)-one] |
| – | < 100 | < 100 | – | [2H]C([2H])([2H])Oc1ccc(-n2c(=O)c(-c3ccc4nn(C)cc4c3)cc3ccc(O[C@H](C)C(F)(F)F)nc32)cc1 [Example 304] |
| – | – | < 100 | – | [2H]C([2H])([2H])Oc1ccc(-c2cc3ccc(NCC(F)(F)F)nc3n(-c3ccc(OC([2H])([2H])[2H])cc3)c2=O)cc1 [Example 306] |
| – | – | < 100 | – | Cn1cc2cc(-c3cc4ccc(NCC(F)(F)F)nc4n(-c4ccc(C5CC5)nc4)c3=O)ccc2n1 [Example 311] |
| – | – | < 100 | – | CCNc1ccc2cc(-c3ccc4nn(C)cc4c3)c(=O)n(-c3ccc(N)nc3)c2n1 [Example 312] |
| – | – | < 100 | – | CN(C)c1ccc(-n2c(=O)c(-c3ccc4nn(C)cc4c3)cc3ccc(OCC(F)(F)F)nc32)cn1 [Example 315] |
| – | – | < 100 | – | COc1ccc(-n2c(=O)c(-c3ccc4nn(CCO)cc4c3)cc3ccc(OCC(F)(F)F)nc32)cc1 [Example 323] |
| – | – | < 100 | – | CCNc1ccc2nc(-c3ccc4nn(C)cc4c3)c(=O)n(-c3ccc(C4CC4)nc3)c2n1 [Example 336] |
| – | – | < 100 | – | CCNc1ccc2nc(-c3ccc4nn(C)cc4c3)c(=O)n(-c3ccc(C)nc3)c2n1 [Example 337] |
| – | – | < 100 | – | Cn1cc2cc(-c3nc4ccc(OCC(F)(F)F)nc4n(-c4ccc(Cl)cc4)c3=O)ccc2n1 [Example 339] |
| – | – | < 100 | – | CN(C)c1ccc(-n2c(=O)c(-c3ccc4nn(C)cc4c3)nc3ccc(OCC(F)(F)F)nc32)cn1 [Example 349, 4-(6-(dimethylamino)pyridin-3-yl)-2-(2-methyl-2H-indazol-5-yl)-6-(2,2,2-trifluoroethoxy)pyrido[2,3-b]pyrazin-3(4H)-one] |
| – | – | 100 to 1000 | – | Cn1cc2cc(-c3nc4ccc(OCC(F)(F)F)nc4n(-c4ccc(N)nc4)c3=O)ccc2n1 [Example 350, 4-(6-aminopyridin-3-yl)-2-(2-methyl-2H-indazol-5-yl)-6-(2,2,2-trifluoroethoxy)pyrido[2,3-b]pyrazin-3(4H)-one] |
